Where “and” joins values, the source holds several entries; their conditions need not be identical. Identical values can stand only once. Counter-ions that a name gives are not always drawn. Like-named read-outs stand apart in the source and are kept apart here.
Experiments:
SARS-CoV-2 [1] = test: microbe, parasite or virus in culture; type: cell-based, SARS-CoV-2 (WIV-04); conditions: for EC50: Severe acute respiratory syndrome coronavirus 2, Vero C1008, 36 h
SARS-CoV-2 [2] = test: microbe, parasite or virus in culture; type: cell-based, SARS-CoV-2 (WIV-04); conditions: Severe acute respiratory syndrome coronavirus 2, Caco-2, 36 h
[3] = system: Renilla luciferase (Rluc) replicon of SARS-CoV-2; type: cell-based
[4] = system: VSV-delG-Rluc-SARS-CoV-2-S pseudovirus; type: cell-based; conditions: 10 μM
[5] = system: SARS-CoV-2 S-mediated cell-cell fusion; type: cell-based
Vero E6 cells [6] = conditions: African green monkey, 36 h
Caco2 cells = conditions: human, 36 h
in vitro [7] = conditions: African green monkey
in vitro [8] = conditions: human
SARS-CoV-2 [9] = test: Virus attachment assay in Vero E6 cells; conditions: 10 μM, Vero E6, 4°C 1 h
Description: After synchronized adsorption for 1 h, the unbound SARS-CoV-2 virions were removed by PBS washing, and the relative levels of bound SARS-CoV-2 virions were measured by qRT-PCR assay.

SARS-CoV-2 [10] = conditions: previous study ref 19; cited from earlier work
[11] = Cytotoxicity CCK8 assay, Vero E6; conditions: African green monkey, Vero E6 cells
Vero E6 cells [12] = test: Cytotoxicity CCK8 assay, Vero E6

Structure (SMILES): COc1cc2c3cc1Oc1c(OC)c(OC)cc4c1[C@@H](Cc1ccc(O)c(c1)Oc1ccc(cc1)C[C@@H]3N(C)CC2)N(C)CC4 [Berbamine hydrochloride]
- EC50 (SARS-CoV-2 [1]): 1.73 µM
- EC50 (SARS-CoV-2 [2]): 1.89 µM
- replicon luciferase signal, drug treatment versus DMSO [3]: no significant difference
- reduction of intracellular luciferase activity compared to DMSO treatment ([4]; Vero E6, 24 h post pseudovirus infection): about 10 fold
- intracellular luciferase activity, mean ([4]; Vero E6, 24 h post-infection (DMSO mean 389736)): 47678.5
- inhibition of S-mediated cell-cell fusion (syncytial phenotype) [5]: little or no such syncytial phenotype was observed
- %inhibiton, mean (CC50 data, CCK-8) (Vero E6 cells [6]; 0.3125 μM): -6.065%
- %inhibiton, mean (CC50 data, CCK-8) (Vero E6 cells [6]; 0.625 μM): -4.636%
- %inhibiton, mean (CC50 data, CCK-8) (Vero E6 cells [6]; 1.25 μM): -0.8416%
- %inhibiton, mean (CC50 data, CCK-8) (Vero E6 cells [6]; 2.5 μM): -0.7911%
- %inhibiton, mean (CC50 data, CCK-8) (Vero E6 cells [6]; 5 μM): -7.026%
- %inhibiton, mean (CC50 data, CCK-8) (Vero E6 cells [6]; 10 μM): -8.006%
- %inhibiton, mean (CC50 data, CCK-8) (Vero E6 cells [6]; 20 μM): 1.038%
- %inhibiton, mean (CC50 data, CCK-8) (Vero E6 cells [6]; 40 μM): 73.2674%
- %inhibiton, mean (CC50 data, CCK-8) (Vero E6 cells [6]; 80 μM): 78.8829%
- %inhibiton, mean (CC50 data, CCK-8) (Caco2 cells; 0.3125 μM): -11.728%
- %inhibiton, mean (CC50 data, CCK-8) (Caco2 cells; 0.625 μM): -16.6504%
- %inhibiton, mean (CC50 data, CCK-8) (Caco2 cells; 1.25 μM): -15.2704%
- %inhibiton, mean (CC50 data, CCK-8) (Caco2 cells; 2.5 μM): -14.7661%
- %inhibiton, mean (CC50 data, CCK-8) (Caco2 cells; 5 μM): -19.7288%
- %inhibiton, mean (CC50 data, CCK-8) (Caco2 cells; 10 μM): -18.7648%
- %inhibiton, mean (CC50 data, CCK-8) (Caco2 cells; 20 μM): -1.748%
- %inhibiton, mean (CC50 data, CCK-8) (Caco2 cells; 40 μM): 50.1206%
- %inhibiton, mean (CC50 data, CCK-8) (Caco2 cells; 80 μM): 67.6973%
- CC50 at 36 h (in vitro [7]): 66.9 µM
- CC50 at 36 h (in vitro [8]): 31.9 µM
- cell-attached viral RNA copies versus DMSO control group (SARS-CoV-2 [9]): no significant difference
- Viral copies (Normalized to DMSO), mean (SARS-CoV-2 [9]; MOI 0.05 (DMSO = 100)): 94.7359

Structure (SMILES): COc1ccc2cc1Oc1ccc(cc1)C[C@H]1c3c(cc4c(c3Oc3cc5c(cc3OC)CCN(C)[C@@H]5C2)OCO4)CCN1C [Cepharanthine, cepharanthine]
- %inhibiton, mean (viral RNA genomic copy number) (SARS-CoV-2 [1]): 99.5371% and 98.6265% and 86.3235% and 71.2349% and 67.6803%
- inhibition against SARS-CoV-2 infection (SARS-CoV-2 [1]): dose-dependent inhibition
- selective index (SI) (SARS-CoV-2 [1]): >8.93
- EC50 (SARS-CoV-2 [1]): 2.24 µM
- inhibition of S-mediated cell-cell fusion (syncytial phenotype) [5]: apparent inhibitory effects
- inhibition of the SARS-CoV-2 induced cytopathic effect (SARS-CoV-2 [10]): efficiently inhibit
- CC50 at 36 h [11]: > 20 µM
- %inhibiton, mean (CC50 data, CCK-8) (Vero E6 cells [12]; Vero-E6, 0.078125 μM): 9.153%
- %inhibiton, mean (CC50 data, CCK-8) (Vero E6 cells [12]; Vero-E6, 0.15625 μM): 9.469%
- %inhibiton, mean (CC50 data, CCK-8) (Vero E6 cells [12]; Vero-E6, 0.3125 μM): 5.3801%
- %inhibiton, mean (CC50 data, CCK-8) (Vero E6 cells [12]; Vero-E6, 0.625 μM): 1.292%
- %inhibiton, mean (CC50 data, CCK-8) (Vero E6 cells [12]; Vero-E6, 1.25 μM): 5.646%
- %inhibiton, mean (CC50 data, CCK-8) (Vero E6 cells [12]; Vero-E6, 2.5 μM): 5.87%
- %inhibiton, mean (CC50 data, CCK-8) (Vero E6 cells [12]; Vero-E6, 5 μM): 7.302%
- %inhibiton, mean (CC50 data, CCK-8) (Vero E6 cells [12]; Vero-E6, 10 μM): 3.537%
- %inhibiton, mean (CC50 data, CCK-8) (Vero E6 cells [12]; Vero-E6, 20 μM): 2.215%

Structure (SMILES): COc1ccc2cc1Oc1ccc(cc1)C[C@H]1c3cc(c(OC)cc3CCN1C)Oc1c(O)c(OC)cc3c1[C@H](C2)N(C)CC3 [Fangchinoline, fangchinoline]
- inhibition against SARS-CoV-2 infection (SARS-CoV-2 [1]): dose-dependent inhibition
- selective index (SI) (SARS-CoV-2 [1]): >9.57
- EC50 (SARS-CoV-2 [1]): 2.09 µM
- inhibition of S-mediated cell-cell fusion (syncytial phenotype) [5]: apparent inhibitory effects
- inhibition of the SARS-CoV-2 induced cytopathic effect (SARS-CoV-2 [10]): efficiently inhibit
- CC50 at 36 h [11]: > 20 µM
- %inhibiton, mean (CC50 data, CCK-8) (Vero E6 cells [12]; Vero-E6, 0.078125 μM): 7.966%
- %inhibiton, mean (CC50 data, CCK-8) (Vero E6 cells [12]; Vero-E6, 0.15625 μM): 4.163%
- %inhibiton, mean (CC50 data, CCK-8) (Vero E6 cells [12]; Vero-E6, 0.3125 μM): 4.478%
- %inhibiton, mean (CC50 data, CCK-8) (Vero E6 cells [12]; Vero-E6, 0.625 μM): 8.257%
- %inhibiton, mean (CC50 data, CCK-8) (Vero E6 cells [12]; Vero-E6, 1.25 μM): 10.5597%
- %inhibiton, mean (CC50 data, CCK-8) (Vero E6 cells [12]; Vero-E6, 2.5 μM): 7.088%
- %inhibiton, mean (CC50 data, CCK-8) (Vero E6 cells [12]; Vero-E6, 5 μM): 14.0504%
- %inhibiton, mean (CC50 data, CCK-8) (Vero E6 cells [12]; Vero-E6, 10 μM): 8.415%
- %inhibiton, mean (CC50 data, CCK-8) (Vero E6 cells [12]; Vero-E6, 20 μM): 0.3804%

Structure (SMILES): COc1ccc2cc1Oc1ccc(cc1)C[C@H]1c3cc(c(OC)cc3CCN1C)Oc1c(OC)c(OC)cc3c1[C@H](C2)N(C)CC3 [Tetrandrine, tetrandrine]
- inhibition against SARS-CoV-2 infection (SARS-CoV-2 [1]): dose-dependent inhibition
- selective index (SI) (SARS-CoV-2 [1]): >6.92
- EC50 (SARS-CoV-2 [1]): 2.89 µM
- inhibition of S-mediated cell-cell fusion (syncytial phenotype) [5]: apparent inhibitory effects
- inhibition of the SARS-CoV-2 induced cytopathic effect (SARS-CoV-2 [10]): efficiently inhibit
- CC50 at 36 h [11]: > 20 µM
- %inhibiton, mean (CC50 data, CCK-8) (Vero E6 cells [12]; Vero-E6, 0.078125 μM): 5.4651%
- %inhibiton, mean (CC50 data, CCK-8) (Vero E6 cells [12]; Vero-E6, 0.15625 μM): 9.075%
- %inhibiton, mean (CC50 data, CCK-8) (Vero E6 cells [12]; Vero-E6, 0.3125 μM): 8.155%
- %inhibiton, mean (CC50 data, CCK-8) (Vero E6 cells [12]; Vero-E6, 0.625 μM): 11.3125%
- %inhibiton, mean (CC50 data, CCK-8) (Vero E6 cells [12]; Vero-E6, 1.25 μM): 11.2558%
- %inhibiton, mean (CC50 data, CCK-8) (Vero E6 cells [12]; Vero-E6, 2.5 μM): 4.063%
- %inhibiton, mean (CC50 data, CCK-8) (Vero E6 cells [12]; Vero-E6, 5 μM): 5.628%
- %inhibiton, mean (CC50 data, CCK-8) (Vero E6 cells [12]; Vero-E6, 10 μM): -1.303%
- %inhibiton, mean (CC50 data, CCK-8) (Vero E6 cells [12]; Vero-E6, 20 μM): -2.23%

Structure (SMILES): COc1ccc(C[C@@H]2c3cc(Oc4cc(C[C@@H]5c6cc(O)c(OC)cc6CCN5C)ccc4O)c(OC)cc3CCN2C)cc1 [isoliensinine]
- inhibition of S-mediated cell-cell fusion (syncytial phenotype) [5]: apparent inhibitory effects
- inhibition of the SARS-CoV-2 induced cytopathic effect (SARS-CoV-2 [10]): efficiently inhibit

Structure (SMILES): COc1cc2c(cc1OC)[C@@H](Cc1ccc(O)c(Oc3cc4c(cc3OC)CCN(C)[C@@H]4Cc3ccc(O)cc3)c1)N(C)CC2 [liensinine]
- inhibition of S-mediated cell-cell fusion (syncytial phenotype) [5]: apparent inhibitory effects
- inhibition of the SARS-CoV-2 induced cytopathic effect (SARS-CoV-2 [10]): efficiently inhibit
